Where two headings read alike, the source gives them in different places. Marks after values point to notes of the source that are not given here.
Key:
[1] = Pharmacokinetic testing in rats; assay type: in vivo, male SD rats; details: rat; for AUC(0-t): read-out: Area under the curve AUC0-last; for C0: read-out: Starting concentration C0; for Cmax: read-out: Peak concentration Cmax
Procedure: The objective was to study the pharmacokinetic behavior of the compound of the present disclosure in rats and evaluate the pharmacokinetic characteristics, using male SD rats aged 7 to 9 weeks as test animals. The drug concentrations in plasma at different time points after a single intravenous injection (IV) and oral administration (P0) of the compound were determined using LC/MS/MS.
The pharmacokinetic characteristics of the compound in rodents following intravenous injection and oral administration were tested using a standard protocol. Test animals were fasted for 10 to 14 hours before administration and allowed to feed 4 hours post-administration. The compound was prepared into a clear solution with the appropriate solvent for both IV (intravenous injection) and PO (oral gavage) administration. The solvent was […]+10% solutol+80% (10% HP-β-CD aqueous solution). Whole blood samples were collected within 24 hours, centrifuged at 6000 g for 3 minutes, and the supernatant was separated to obtain plasma samples. Protein precipitation was performed by adding four times the volume of acetonitrile solution containing internal standard to the plasma samples. After centrifugation, the supernatant was added with an equal volume of water and then centrifuged before being subjected to LC-MS/MS analysis for quantifying plasma drug concentration. Pharmacokinetic parameters such as peak concentration, time to peak concentration, clearance, half-life, area under the drug-time curve, and bioavailability were calculated.

[2] = tested on: IL-23-induced psoriasis-like skin lesions; test: Mouse psoriasis-like model induced by IL-23; assay type: in vivo, C57BL/6 mice; set-up: Total score for epidermal hyperplasia of ear pinnae / AUC of total score for epidermal hyperplasia of ear pinnae / Pathological score: Degree of keratinization / Pathological score: Epidermal thickness / Pathological score: Dermal thickness / Pathological score: Inflammatory cell infiltration / Comprehensive pathological score: scale not given here; details: for AUC of total score for epidermal hyperplasia of ear pinnae: Day 0 to Day 8; for Comprehensive pathological score / Pathological score: Degree of keratinization / Pathological score: Dermal thickness / Pathological score: Epidermal thickness / Pathological score: Inflammatory cell infiltration: right ear H&E sections
Source text: The purpose of this experiment was to evaluate the prophylactic and therapeutic effect of the test substance on IL-23-induced psoriasis-like skin lesions in mice by intradermal injection of IL-23 into the ear pinnae in a psoriasis-like skin lesion model.
Female C57BL/6 mice of qualified body weight were randomly divided into groups, with 6 mice per group. The grouping and administration information was as follows. The groups were: blank control group, model group, positive control Ustekinumab (5 mg/kg) group, WX-011A hydrochloride (30, 50 mg/kg) group, and WX-020 sulfate (30, 50 mg/kg) group. Except for the blank control group, the animals in the other groups received an intradermal injection of IL-23 (3 μg/10 μL/mouse/day, QD) in the right ear for 8 consecutive days (Day 0 to Day 7). The blank control group received an intradermal injection of an equal volume of saline solution (10 μL/mouse/day, QD) in the right ear for 8 consecutive days (Day 0 to Day 7). Concurrent with model induction, the solvent or test drug was orally administered twice a day (Bid) at 6-hour intervals for 8 consecutive days (Day 0 to Day 7). The positive control was subcutaneously injected on Day 0 and Day 3 (a total of 2 doses). During the administration period, the body weight of the animals was monitored every two days. On Day 0, Day 2, Day 4, Day 6 (all before IL-23 injection), and Day 8, the thickness of the right ear of the mice was measured, and the appearance of the ear pinnae was observed and scored.
The compounds were all prepared into a clear solution with 10% DMSO+[…] as a solvent for PO (oral gavage) administration. Administration volume parameters: 10 mL/kg based on the body weight of the mice.
After grouping, IL-23 (3 μg/10 μL/mouse/day, QD) was injected intradermally into the right ears of the mice for 8 consecutive days (Day 0 to Day 7). Measurements of the thickness of the right ear and observations and scoring of the appearance of the ear pinnae were performed on Day 0, Day 2, Day 4, Day 6 (all before IL-23 injection), and Day 8. At the end of the experiment (Day 8), the left ear tissues of the mice from groups G4 to G10 (3 animals per group at each time point) were collected. The right ear, which had been modeled, was excised, an 8 mm ear punch was taken along the edge of the pinna, and its weight was measured. The excised right ear tissues were fixed in formalin for histopathological examination (H&E staining).
Concurrent with model induction, corresponding drug treatment was given for administration. Except for the positive control drug (Ustekinumab), which was subcutaneously injected on Day 0 and Day 3 (once a day), control and test drugs for each dose group were orally administered by gavage twice a day at 6-hour intervals for 8 consecutive days (Day 0 to Day 7).
The pathological scoring of mouse ear tissue sections was conducted according to the criteria in Table 33.
The experimental data are represented as Mean±SD; statistical analysis was performed using IBM SPSS Statistics 21, with p<0.05 considered to indicate a statistically significant difference between the two groups. The effect of the test substance on the thickness of mouse ears in the IL-23 induced mouse pinna epidermal hyperplasia model is shown in Table 34. The effect of the test substance on the total score and AUC for […] induced mouse pinna epidermal hyperplasia is shown in Table 35.

CNC(=O)c1cnc(NC(=O)C2CC2)cc1Nc1cccc(-c2ccc(S(=O)(=O)C(C)C)cn2)c1OC [WX-020]
Vd ([1]; male, SD, plasma, IV 3 mg/kg, read-out: Apparent volume of distribution Vd): 0.9 L/kg
AUC(0-t) ([1]; male, SD, plasma, IV 3 mg/kg): 2.61 µM·h
half-life ([1]; male, SD, plasma, IV 3 mg/kg, read-out: Half-life T1/2 (converted)): 54 min
C0 ([1]; male, SD, plasma, IV 3 mg/kg): 3.03 µM
AUC(0-t) ([1]; male, SD, plasma, PO 10 mg/kg): 9.76 µM·h
bioavailability ([1]; male, SD, plasma, PO 10 mg/kg, read-out: Bioavailability F%): 39%
Cmax ([1]; male, SD, plasma, PO 10 mg/kg): 3.38 µM
Tmax ([1]; male, SD, plasma, PO 10 mg/kg, read-out: Time to peak concentration Tmax): 48 min
Apparent clearance Cl ([1]; IV 3 mg/kg): 13.1 mL/min/kg

CNC(=O)c1cnc(NC(=O)C2CC2)cc1Nc1cccc(-c2ccc(S(=O)(=O)C(C)C)cn2)c1OC.O=S(=O)(O)O [Sulfate of WX-020]
Ear thickness (mm) ([2]; 30 mg/kg PO BID, Day 0): 0.197 mm
Total score for epidermal hyperplasia of ear pinnae ([2]; 30 mg/kg PO BID, Day 0): 0.00
AUC of total score for epidermal hyperplasia of ear pinnae ([2]; 30 mg/kg PO BID): 7.67
Ear thickness (mm) ([2]; 30 mg/kg PO BID, Day 2): 0.283 mm
Total score for epidermal hyperplasia of ear pinnae ([2]; 30 mg/kg PO BID, Day 2): 0.00
Ear thickness (mm) ([2]; 30 mg/kg PO BID, Day 4): 0.311 mm
Total score for epidermal hyperplasia of ear pinnae ([2]; 30 mg/kg PO BID, Day 4): 0.50*
Ear thickness (mm) ([2]; 30 mg/kg PO BID, Day 6): 0.351** mm
Total score for epidermal hyperplasia of ear pinnae ([2]; 30 mg/kg PO BID, Day 6): 2.5
Ear thickness (mm) ([2]; 30 mg/kg PO BID, Day 8): 0.343^p=0.082 mm
Total score for epidermal hyperplasia of ear pinnae ([2]; 30 mg/kg PO BID, Day 8): 1.67*
Comprehensive pathological score ([2]; 30 mg/kg PO BID): 4.17**
Pathological score: Degree of keratinization ([2]; 30 mg/kg PO BID): 0.83**
Pathological score: Dermal thickness ([2]; 30 mg/kg PO BID): 1.33
Pathological score: Epidermal thickness ([2]; 30 mg/kg PO BID): 0.83**
Pathological score: Inflammatory cell infiltration ([2]; 30 mg/kg PO BID): 1.17**
Ear thickness (mm) ([2]; 50 mg/kg PO BID, Day 0): 0.195 mm
Total score for epidermal hyperplasia of ear pinnae ([2]; 50 mg/kg PO BID, Day 0): 0.00
AUC of total score for epidermal hyperplasia of ear pinnae ([2]; 50 mg/kg PO BID): 5.00*
Ear thickness (mm) ([2]; 50 mg/kg PO BID, Day 2): 0.289 mm
Total score for epidermal hyperplasia of ear pinnae ([2]; 50 mg/kg PO BID, Day 2): 0.00
Ear thickness (mm) ([2]; 50 mg/kg PO BID, Day 4): 0.303* mm
Total score for epidermal hyperplasia of ear pinnae ([2]; 50 mg/kg PO BID, Day 4): 0.50*
Ear thickness (mm) ([2]; 50 mg/kg PO BID, Day 6): 0.311** mm
Total score for epidermal hyperplasia of ear pinnae ([2]; 50 mg/kg PO BID, Day 6): 1.33*
Ear thickness (mm) ([2]; 50 mg/kg PO BID, Day 8): 0.317** mm
Total score for epidermal hyperplasia of ear pinnae ([2]; 50 mg/kg PO BID, Day 8): 1.33**
Comprehensive pathological score ([2]; 50 mg/kg PO BID): 2.17**
Pathological score: Degree of keratinization ([2]; 50 mg/kg PO BID): 0.33**
Pathological score: Dermal thickness ([2]; 50 mg/kg PO BID): 0.50
Pathological score: Epidermal thickness ([2]; 50 mg/kg PO BID): 0.67**
Pathological score: Inflammatory cell infiltration ([2]; 50 mg/kg PO BID): 0.67**

CNC(=O)c1nnc(NC(=O)C2CC2)cc1Nc1cccc(-c2ncc(S(=N)(=O)C(C)C)cn2)c1OC.Cl (single isomer, unassigned) [Hydrochloride of WX-011A]
Ear thickness (mm) ([2]; 30 mg/kg PO BID, Day 0): 0.199 mm
Total score for epidermal hyperplasia of ear pinnae ([2]; 30 mg/kg PO BID, Day 0): 0.00
AUC of total score for epidermal hyperplasia of ear pinnae ([2]; 30 mg/kg PO BID): 3.17**
Ear thickness (mm) ([2]; 30 mg/kg PO BID, Day 2): 0.274* mm
Total score for epidermal hyperplasia of ear pinnae ([2]; 30 mg/kg PO BID, Day 2): 0.00
Ear thickness (mm) ([2]; 30 mg/kg PO BID, Day 4): 0.299* mm
Total score for epidermal hyperplasia of ear pinnae ([2]; 30 mg/kg PO BID, Day 4): 0.33*
Ear thickness (mm) ([2]; 30 mg/kg PO BID, Day 6): 0.297** mm
Total score for epidermal hyperplasia of ear pinnae ([2]; 30 mg/kg PO BID, Day 6): 0.67**
Ear thickness (mm) ([2]; 30 mg/kg PO BID, Day 8): 0.301** mm
Total score for epidermal hyperplasia of ear pinnae ([2]; 30 mg/kg PO BID, Day 8): 1.17**
Comprehensive pathological score ([2]; 30 mg/kg PO BID): 1.17**
Pathological score: Degree of keratinization ([2]; 30 mg/kg PO BID): 0.17**
Pathological score: Dermal thickness ([2]; 30 mg/kg PO BID): 0.17
Pathological score: Epidermal thickness ([2]; 30 mg/kg PO BID): 0.67**
Pathological score: Inflammatory cell infiltration ([2]; 30 mg/kg PO BID): 0.17**
Ear thickness (mm) ([2]; 50 mg/kg PO BID, Day 0): 0.197 mm
Total score for epidermal hyperplasia of ear pinnae ([2]; 50 mg/kg PO BID, Day 0): 0.00
AUC of total score for epidermal hyperplasia of ear pinnae ([2]; 50 mg/kg PO BID): 2.67**
Ear thickness (mm) ([2]; 50 mg/kg PO BID, Day 2): 0.279^p=0.081 mm
Total score for epidermal hyperplasia of ear pinnae ([2]; 50 mg/kg PO BID, Day 2): 0.00
Ear thickness (mm) ([2]; 50 mg/kg PO BID, Day 4): 0.291 * mm
Total score for epidermal hyperplasia of ear pinnae ([2]; 50 mg/kg PO BID, Day 4): 0.17**
Ear thickness (mm) ([2]; 50 mg/kg PO BID, Day 6): 0.299** mm
Total score for epidermal hyperplasia of ear pinnae ([2]; 50 mg/kg PO BID, Day 6): 0.67**
Ear thickness (mm) ([2]; 50 mg/kg PO BID, Day 8): 0.300** mm
Total score for epidermal hyperplasia of ear pinnae ([2]; 50 mg/kg PO BID, Day 8): 1.00*
Comprehensive pathological score ([2]; 50 mg/kg PO BID): 1.83**
Pathological score: Degree of keratinization ([2]; 50 mg/kg PO BID): 0.33**
Pathological score: Dermal thickness ([2]; 50 mg/kg PO BID): 0.50
Pathological score: Epidermal thickness ([2]; 50 mg/kg PO BID): 0.50**
Pathological score: Inflammatory cell infiltration ([2]; 50 mg/kg PO BID): 0.50**
Apparent clearance Cl ([1]; IV 1 mg/kg): 16.8 mL/min/kg
Apparent volume of distribution Vd ([1]; IV 1 mg/kg): 0.5 L/kg
Area under the curve AUC0-last ([1]; IV 1 mg/kg): 2.075 µM·h
Half-life T1/2 ([1]; IV 1 mg/kg): 36 min
C0 ([1]; IV 1 mg/kg): 4.54 µM
Area under the curve AUC0-last ([1]; PO 10 mg/kg): 8.202 µM·h
Bioavailability F % ([1]; PO 10 mg/kg): 41%
Time to peak concentration Tmax ([1]; PO 10 mg/kg): 30 min
Cmax ([1]; PO 10 mg/kg): 4.39 µM
